One data set has as its system omega 3 sites. As to the kind of experiment: Global ischemia on gerbils. In kind it is in vivo, gerbil. Conditions: Meriones unguiculatus, 168 h; both carotides clamped 10 minutes; hippocampes taken one week later; 3H-PK 11195 2 nM; compared to control; significance marks (*, **, ***, NS) given; read-out: Global protection in %. As for the experimental part:
3) Global ischemia on gerbils
For this test, males gerbilles were anaesthetized with brietal at the doses of 35 mg/kg IP; thereafter, both carotides were clamped for 10 minutes, then the clamping was released. Treated animals received each 10 mg/kg of the compounds of one of the examples.
One week later, the animals were killed and both hippocampes were taken, weighed and frozen at -80° C.
After crushing with 1 ml of TRIS-HCl buffer pH 7.4 for 30 secondes, aliquots of each 50 μl of this preparation were incubed in each 1 ml of TRIS-HCl buffer containing ^3 H-PK 11195 at 2 nM (90 Ci/mmole, NENE, Germany) for 1 hour at 25° C. For each preparation, 3 determinations were made. The density of omega 3 sites (marked by the specific ^3 H PK 11195 marker) are expressed in f-moles of PK 11195/mg of fresh tissues and converted in percentage of protection compared to control.

In data set [1] the test system is platelet aggregation induced by PAF. As to the kind of experiment: Inhibition of platelet aggregation induced by PAF. In kind it is cell-based, New Zealand rabbits. The conditions noted are these: Oryctolagus cuniculus, rabbit platelets, aggregometer at 57° C. [sic]. As for the experimental part: 1) Inhibition of platelet aggregation induced by PAF
This experimentation was conducted according to the method of R. KINLOUGH. RATHBONE, J. P. CAZENAVE, M. PACKHAM and F. MUSTARD, Lab. Invest. 48, 98, 1980. In this test, New Zealand rabbits were used (male New Zealand rabbits of an average weight of 5 kg).
The determinations are made on a chrono-log Coultronics aggregometer, at […] coupled with a graphic recorder; the results of these determinations (in molecular concentration) are reported on the table I on the central column.

A further data set is described as follows: Toxicity on mice. The conditions noted are these: mouse, in vivo, IP. From the text:
None of these compounds of this invention was toxic per os at dose of 1 g/kg on mice.
None of the compounds was toxic IP at the dose of 1 g/kg on mice with the exception of the examples 1, 5 and 10 for which the LD 50 was comprised between 0.5 and 1 g/kg.

By IC50 is commonly meant the concentration that inhibits the measured activity by half. The low end stands for inhibition by little substance, the high end for a need for much substance. By LD50 is commonly meant the dose expected to kill half of the subjects tested. A higher LD50 goes with a less toxic substance.

Turning to `Cc1nnc2n1-c1sc3c(c1C(c1ccccc1Cl)=NC2)CCN(S(=O)(=O)c1ccc[nH]1)C3` [Example 13, 6-(2-chlorophenyl)-9-(α-pyrrolyl)sulphonyl-7,8,9,10-tetrahydro-1-methyl-4H-pyrido [4',3':4,5] thieno [3,2-f] 1,2,4-triazolo [4,3-a] 1,4-diazepine], the inhibition in vivo at 10 mg/kg in the data set with omega 3 sites stood at 29.3%. In addition, the IC50 in data set [1] came to 215 nM.
As to `Cc1nnc2n1-c1sc3c(c1C(c1ccccc1Cl)=NC2)CCN(S(=O)(=O)c1ccccc1)C3` [Example 2, 6-(2-chlorophenyl)-9-phenylsulphonyl-7,8,9,10-tetrahydro-1-methyl 4H-pyrido [4',3':4,5] thieno [3,2-f] 1,2,4-triazolo [4,3-a] 1,4-diazepine], the inhibition in vivo at 10 mg/kg in the data set with omega 3 sites is 38.3%. This compound yielded an IC50 in data set [1] of 225 nM.
As to `COc1ccc(S(=O)(=O)N2CCc3c(sc4c3C(c3ccccc3Cl)=NCc3nnc(C)n3-4)C2)cc1OC` [Example 7, 6-(2-chlorophenyl)-9-(3,4-dimethoxy)phenylsulphonyl-7,8,9,10-tetrahydro-1-methyl 4H-pyrido [4',3':4,5] thieno [3,2-f] 1,2,4-triazolo [4,3-a] 1,4 diazepine], the inhibition in vivo at 10 mg/kg in the data set with omega 3 sites is 26.6%. For the same compound, in data set [1], inhibition was half-maximal at 119 nM (IC50).
Turning to `COc1ccc(S(=O)(=O)N2CCc3c(sc4c3C(c3ccccc3Cl)=NCc3nnc(C)n3-4)C2)c(OC)c1OC` [Example 5, 6-(2-chlorophenyl)-9-(4,5,6-trimethoxy)phenylsulphonyl-7,8,9,10-tetrahydro-1-methyl 4H-pyrido [4',3':4,5] thieno [3,2-f] 1,2,4-triazolo [4,3-a] 1,4-diazepine], the inhibition in vivo at 10 mg/kg in the data set with omega 3 sites came out at 28.1%. In data set [1], this compound gave an IC50 of 187 nM. This compound also had an LD50 in the data set “Toxicity on mice” of 500 to 1000 mg/kg.
Turning to `Cc1nnc2n1-c1sc3c(c1C(c1ccccc1Cl)=NC2)CCN(S(=O)(=O)c1cccc2cccnc12)C3` [Example 14, 6-(2-chlorophenyl)-9-(8-quinolyl)sulfonyl-7,8,9,10-tetrahydro-1-methyl-4H-pyrido-[4',3':4,5] thieno [3,2-f] 1,2,4-triazolo [4,3-a] 1,4-diazepine], the inhibition in vivo at 10 mg/kg with omega 3 sites is 17.4%. The same compound registered an IC50 in data set [1] of 65 nM.
For `Cc1nnc2n1-c1sc3c(c1C(c1ccccc1Cl)=NC2)CCN(S(=O)(=O)c1ccco1)C3` [Example 12, 6-(2-chlorophenyl)-9-α-furylphenylsulphonyl-7,8,9,10-tetrahydro-1-methyl 4H-pyrido [4',3':4,5] thieno [3,2-f] 1,2,4-triazolo [4,3-a] 1,4-diazepine] the same measures were 21.4% and 110 nM.
With `Cc1nnc2n1-c1sc3c(c1C(c1ccccc1Cl)=NC2)CCN(S(=O)(=O)c1ccc(Oc2ccc(C(=O)O)cc2)cc1)C3` [Example 17, 6-(2-chlorophenyl)-9-[4-(4'-(carboxy)phenyloxy)phenyl] sulphonyl-7,8,9,10-tetrahydro-1-methyl-4H-pyrido [4',3':4,5] thieno [3,2-f] 1,2,4-triazolo [4,3-a] 1,4-diazepine], in the data set with omega 3 sites, the inhibition in vivo at 10 mg/kg came out at 7.8%. Moreover, 472 nM corresponded to half-maximal inhibition in data set [1] (IC50).
Consider `Cc1nnc2n1-c1sc3c(c1C(c1ccccc1Cl)=NC2)CCN(S(=O)(=O)c1ccc(C(F)(F)F)cc1)C3` [Example 4, 6-(2-chlorophenyl)-9-(trifluoromethyl)phenylsulphonyl-7,8,9,10-tetrahydro-1-methyl 4H-pyrido [4',3':4,5] thieno [3,2-f] 1,2,4-triazolo [4,3-a] 1,4-diazepine], for which the inhibition in vivo at 10 mg/kg in the data set on omega 3 sites is 38.7%. This compound also gave an IC50 in data set [1] of 98.2 nM.
Consider `COc1cc(OC)c(S(=O)(=O)N2CCc3c(sc4c3C(c3ccccc3Cl)=NCc3nnc(C)n3-4)C2)cc1SC` [Example 18, 6-(2-chlorophenyl)-9-[5-methylthio 2,4-dimethoxy]phenyl sulphonyl-7,8,9,10-tetrahydro-1-methyl-4H-pyrido [4',3':4,5] thieno [3,2-f] 1,2,4-triazolo [4,3-a] 1,4-diazepine], for which, in the data set with omega 3 sites, the inhibition in vivo at 10 mg/kg is 10%. In data set [1], inhibition was half-maximal at 22.2 nM (IC50).
With `Cc1nnc2n1-c1sc3c(c1C(c1ccccc1Cl)=NC2)CCN(S(=O)(=O)c1ccc(Oc2ccc([N+](=O)[O-])cc2)cc1)C3` [Example 10, 6-(2-chlorophenyl)-9-[4-(4'-nitrophenoxy)]phenylsulphonyl-7,8,9,10-tetrahydro-1-methyl 4H-pyrido [4',3':4,5] thieno [3,2-f] 1,2,4-triazolo [4,3-a] 1,4-diazepine], the inhibition in vivo at 10 mg/kg in the data set with omega 3 sites is 19.3%. The same compound gave an IC50 in data set [1] of 1.41 nM. The same compound displayed an LD50 in “Toxicity on mice” of 500 to 1000 mg/kg.
On to `Cc1nnc2n1-c1sc3c(c1C(c1ccccc1Cl)=NC2)CCN(S(=O)(=O)c1ccc2ccccc2c1)C3` [Example 15, 6-(2-chlorophenyl)-9-(2-naphtyl)sulphonyl-7,8,9,10-tetrahydro-1-methyl-4H-pyrido [4',3':4,5] thieno [3,2-f] 1,2,4-triazolo [4,3-a] 1,4-diazepine], for which the inhibition in vivo at 10 mg/kg in the data set on omega 3 sites was determined as 34.8%. Besides, the IC50 in data set [1] was determined as 431 nM.
Turning to `Cc1cc(C)c(S(=O)(=O)N2CCc3c(sc4c3C(c3ccccc3Cl)=NCc3nnc(C)n3-4)C2)c(C)c1` [Example 8, 6-(2-chlorophenyl)-9-(2,4,6-trimethyl)phenylsulphonyl-7,8,9,10-tetrahydro-1-methyl 4H-pyrido [4',3':4,5] thieno [3,2-f] 1,2,4-triazolo [4,3-a] 1,4-diazepine], the inhibition in vivo at 10 mg/kg in the data set on omega 3 sites is 30.5%. In data set [1], this compound yielded an IC50 of 25.1 nM.
For `COc1cc(OC)c(S(=O)(=O)N2CCc3c(sc4c3C(c3ccccc3Cl)=NCc3nnc(C)n3-4)C2)cc1S(C)(=O)=O` [Example 19, 6-(2-chlorophenyl)-9-[5-mesyl 2,4-dimethoxy]phenylsulphonyl-7,8,9,10-tetrahydro-1-methyl-4H-pyrido [4',3':4,5] thieno [3,2-f] 1,2,4-triazolo [4,3-a] 1,4-diazepine], the inhibition in vivo at 10 mg/kg with omega 3 sites amounted to 8.4%. In addition, the half-maximal inhibitory concentration (IC50) in data set [1] amounted to 375 nM.
In the case of `Cc1nnc2n1-c1sc3c(c1C(c1ccccc1Cl)=NC2)CCN(S(=O)(=O)C(C)C)C3` [Example 20, 6-(2-chlorophenyl)-9-isopropylsulfonyl-7,8,9,10-tetrahydro-1-methyl-4H-pyrido [4',3':4,5] thieno [3,2-f] 1,2,4-triazolo [4,3-a] 1,4-diazepine], the inhibition in vivo at 10 mg/kg in the data set on omega 3 sites stood at 47.5%. The IC50 in data set [1] amounted to 517 nM.
`COc1ccc(S(=O)(=O)N2CCc3c(sc4c3C(c3ccccc3Cl)=NCc3nnc(C)n3-4)C2)cc1` [Example 9, 6-(2-chlorophenyl)-9-(4-methoxy)phenylsulphonyl-7,8,9,10-tetrahydro-1-methyl 4H-pyrido [4',3':4,5] thieno [3,2-f] 1,2,4-triazolo [4,3-a] 1,4-diazepine]: the inhibition in vivo at 10 mg/kg with omega 3 sites is 9.4%. The compound also had a concentration for half-maximal inhibition (IC50) in data set [1] of 122 nM.
Consider `Cc1nnc2n1-c1sc3c(c1C(c1ccccc1Cl)=NC2)CCN(S(=O)(=O)c1cccs1)C3` [Example 11, 6-(2-chlorophenyl)-9-α-thienylphenylsulphonyl-7,8,9,10-tetrahydro-1-methyl 4H-pyrido [4',3':4,5] thieno [3,2-f] 1,2,4-triazolo [4,3-a] 1,4-diazepine], for which, in the data set on omega 3 sites, the inhibition in vivo at 10 mg/kg amounted to 32.7%. The same compound yielded an IC50 in data set [1] of 144 nM.
In the case of `Cc1nnc2n1-c1sc3c(c1C(c1ccccc1Cl)=NC2)CCN(S(=O)(=O)c1ccc(C(C)(C)C)cc1)C3` [Example 6, 6-(2-chlorophenyl)-9-(4-tert.butyl)phenylsuphonyl-7,8,9,10-tetrahydro-1-methyl 4H-pyrido [4',3':4,5] thieno [3,2-f] 1,2,4-triazolo [4,3-a] 1,4-diazepine], the inhibition in vivo at 10 mg/kg in the data set on omega 3 sites amounted to 13.8%. In data set [1], this compound yielded a concentration for half-maximal inhibition (IC50) of 117 nM.
In the case of `Cc1nnc2n1-c1sc3c(c1C(c1ccccc1Cl)=NC2)CCN(S(=O)(=O)c1c(Cl)cc(Cl)cc1Cl)C3` [Example 3, 6-(2-chlorophenyl)-9-(2,4,6-trichloro)phenylsulphonyl-7,8,9,10-tetrahydro-1-methyl 4H-pyrido [4',3':4,5] thieno [3,2-f] 1,2,4-triazolo [4,3-a] 1,4-diazepine], the inhibition in vivo at 10 mg/kg in the data set on omega 3 sites came out at 33.3%. The compound also returned a half-maximal inhibitory concentration (IC50) in data set [1] of 37.1 nM.
For `Cc1nnc2n1-c1sc3c(c1C(c1ccccc1Cl)=NC2)CCN(S(=O)(=O)c1ccc(C(=O)O)cc1)C3` [Example 16, 6-(2-chlorophenyl)-9-(4-carboxy)phenylsulphonyl-7,8,9,10-tetrahydro-1-methyl-4H-pyrido [4',3':4,5] thieno [3,2-f] 1,2,4-triazolo [4,3-a] 1,4-diazepine], the inhibition in vivo at 10 mg/kg in the data set with omega 3 sites came to 23.9%. In data set [1], this compound displayed an IC50 of 20.1 nM.

Values taken from patent US5049560A, “Sulfonyl derivatives of thieno-triazolo-diazepines useful as anti-PAF and anti-ischemic agents” (priority 1989, dated 1991).
